From patent US20250109140A1, “5-[5-(PIPERIDIN-4-YL)THIENO[3,2-C]PYRAZOL-2-YL]INDAZOLE DERIVATIVES AND RELATED COMPOUNDS AS MODULATORS FOR SPLICING NUCLEIC ACIDS AND FOR THE TREATMENT OF PROLIFERATIVE DISEASES” (REMIX THERAPUTICS INC., priority 2022, published 2025)
Read-outs that look alike come from different tables or passages of the source.

Columns and labels:
Assay type in all cases: cell-based
SMN2 mRNA = experiment: Splicing RT-qPCR gene panel, SMN2 canonical junction (CJ) mRNA; conditions: Homo sapiens; Table 8; larger gene panel, decrease in CJ mRNA levels
Description: (§1) Compounds described herein were used to modulate RNA transcript abundance in cells. The expression of a target mRNA was measured by detecting the formation of an exon-exon junction in the canonical transcript (CJ). A compound mediated exon-inclusion event was detected by observing an increase in formation of a new junction with an alternative exon (AJ). Real-time qPCR assays were used to detect these splicing switches and interrogate the potency of various compounds towards different target genes. A high-throughput real time quantitative PCR (RT-qPCR) assay was developed to measure these two isoforms of the mRNA (CJ and AJ) for exemplary genes, such as HTT, SMN2, and MYB, together with a control housekeeping gene, GAPDH or GUSB or PPIA, used for normalization. Briefly, the A673 or K562 cell line was treated with various compounds described herein (e.g., compounds of Formula (I)). After treatment, the levels of the HTT, MYB, or SMN2 mRNA targets were determined from each sample of cell lysate by cDNA synthesis followed by qPCR.
(§2) The A673 cell line was cultured in DMEM with 10% FBS. Cells were diluted with full growth media and plated in a 96-well plate (15,000 cells in 100 ul media per well). The plate was incubated at 37° C. with 5% CO2 for 24 hours to allow cells to adhere. An 11-point 3-fold serial dilution of the compounds was made in DMSO then diluted in media in an intermediate plate. Compounds were transferred from the intermediate plate to the cell plate with the top dose at a final concentration of 10 uM in the well. Final DMSO concentration was kept at or below 0.25%. The cell plate was returned to the incubator at 37° C. with 5% CO2 for an additional 24 hours.
(§3) The K562 cell line was cultured in IMDM with 10% FBS. For K562, cells were diluted with full growth media and plated in either a 96-well plate (50,000 cells in 50 uL media per well) or a 384-well plate (8,000-40,000 cells in 45 uL media per well). An 11-point 3-fold serial dilution of the compounds were made in DMSO then diluted in media in an intermediate plate. Compound was transferred from the intermediate plate to the cell plate with the top dose at a final concentration of 10 uM in the well. Final DMSO concentration was kept at or below 0.25%. Final volume was 100 uL for 96-well plate and 50 uL for 384-well plate. The cell plate was then placed in an incubator at 37° C. with 5% CO2 for 24 hours.
(§4) The cells were then gently washed with 50 uL-100 uL cold PBS before proceeding to addition of lysis buffer. 30 uL-50 uL of room temperature lysis buffer with DNAse I (and optionally RNAsin) was added to each well. Cells were shaken/mixed thoroughly at room temperature for 5-10 minutes for lysis to take place and then 3 uL-5 uL of room temperature stop solution was added and wells were shaken/mixed again. After 2-5 minutes, the cell lysate plate was transferred to ice for RT-qPCR reaction setup. The lysates could also be frozen at-80° C. for later use.
(§5) In some cases, a direct lysis buffer was used. An appropriate volume of 3× lysis buffer (10 mM Tris, 150 mM NaCl, 1.5%-2.5% Igepal and 0.1-1 U/uL RNAsin, pH 7.4) was directly added to either K562 or A673 cells in media and mixed by pipetting 3 times. The plates were then incubated at room temperature with shaking/rocking for 20-50 minutes to allow for lysis to take place. After this time, the cell lysate plate was transferred to ice to set up for the RT-qPCR reactions. The lysates could also be frozen at −80° C. for later use.
(§6) To set up 10 uL RT-qPCR reactions, cell lysates were transferred to 384-well qPCR plates containing the master mix according to the table below. The plates were sealed, gently vortexed, and spun down before the run. The volumes were adjusted accordingly in some instances where the reaction was carried in 20 μL. The table below summarizes the components of the RT-qPCR reactions:
(§7) The RT-qPCR reaction was performed using a QuantStudio (ThermoFisher) under the following fast cycling conditions. […]

Target C mRNA = experiment: Splicing RT-qPCR gene panel, Target C canonical junction (CJ) mRNA; conditions: Homo sapiens; Table 8; larger gene panel, decrease in CJ mRNA levels
Description: as §1, §2, §3, §4, §5, §6, §7

MYB mRNA = experiment: Splicing RT-qPCR assay, MYB canonical (CJ) and alternative (AJ) junction mRNA; conditions: Homo sapiens; for EC50: AC50 = 50% response in AJ mRNA increase
Description: as §1, §2, §3, §4, §5, §6, §7

HTT mRNA = experiment: Splicing RT-qPCR assay, HTT canonical (CJ) and alternative (AJ) junction mRNA; conditions: Homo sapiens; for EC50: AC50 = 50% response in AJ mRNA increase
Description: as §1, §2, §3, §4, §5, §6, §7

[1] = Table 7, RT-qPCR, A673 or K562 cells, 24 hours treatment
[2] = Table 7, IC50 = 50% response in CJ mRNA decrease, RT-qPCR, A673 or K562 cells, 24 hours treatment, read-out: MYB CJ
[3] = Table 8, larger gene panel, decrease in CJ mRNA levels, read-out: MYB CJ IC50
[4] = Table 7, IC50 = 50% response in CJ mRNA decrease, RT-qPCR, A673 or K562 cells, 24 hours treatment, read-out: HTT CJ
[5] = Table 8, larger gene panel, decrease in CJ mRNA levels, read-out: HTT CJ IC50

SMILES	IC50 (SMN2 mRNA) [nM]	IC50 (Target C mRNA) [nM]	EC50 (MYB mRNA; [1]) [nM]	IC50 (MYB mRNA; [2]) [nM]	IC50 (MYB mRNA; [3]) [nM]	EC50 (HTT mRNA; [1]) [nM]	IC50 (HTT mRNA; [4]) [nM]	IC50 (HTT mRNA; [5]) [nM]
Cn1cc2cc(-c3nc4sc(N5CCC(NC(C)(C)C)C5)cc4s3)cc(F)c2n1 (stereo not shown) [Compound 143, N-tert-butyl-1-[2-(7-fluoro-2-methylindazol-5-yl)thieno[2,3-d][1,3]thiazol-5-yl]pyrrolidin-3-amine]	100 to 1000	1000 to 10000	100 to 1000	1000 to 10000	100 to 1000	1000 to 10000	1000 to 10000	1000 to 10000
Cn1cc2cc(-c3nc4sc(N5CCN6CCCC6C5)cc4s3)cc(F)c2n1 (stereo not shown) [Compound 144, 7-fluoro-5-(5-[hexahydro-1H-pyrrolo[1,2-a]pyrazin-2-yl]thieno[2,3-d][1,3]thiazol-2-yl)-2-methylindazole]	< 100	> 10000	100 to 1000	1000 to 10000	100 to 1000	100 to 1000	1000 to 10000	100 to 1000
CN1CCC(N(C)c2cc3sc(-c4cc(F)c5nn(C)cc5c4)nc3s2)CC1 [Compound 145, N-[2-(7-fluoro-2-methylindazol-5-yl)thieno[2,3-d][1,3]thiazol-5-yl]-N,1-dimethylpiperidin-4-amine]	100 to 1000	> 10000	1000 to 10000	1000 to 10000	1000 to 10000	> 10000	> 10000	> 10000
CN1CC2(C1)CN(c1cc3sc(-c4cc(F)c5nn(C)cc5c4)nc3s1)C2 [Compound 146, 7-fluoro-2-methyl-5-(5-[6-methyl-2,6-diazaspiro[3.3]heptan-2-yl]thieno[2,3-d][1,3]thiazol-2-yl)indazole]	< 100	100 to 1000			100 to 1000			100 to 1000
CN(C)C1CCN(c2cc3sc(-c4cc(F)c5nn(C)cc5c4)nc3s2)CC1 [Compound 154, 1-[2-(7-fluoro-2-methylindazol-5-yl)thieno[2,3-d][1,3]thiazol-5-yl]-N,N-dimethylpiperidin-4-amine]	< 100	100 to 1000	100 to 1000	100 to 1000	100 to 1000	100 to 1000	100 to 1000	100 to 1000
CN(c1cc2sc(-c3ccc(-c4cn[nH]c4)cc3O)nc2s1)[C@@H]1C[C@H]2CC[C@@H](C1)N2 [Compound 191, 2-{5-[(1R,3R,5S)-8-azabicyclo[3.2.1]octan-3-yl(methyl)amino]thieno[2,3-d][1,3]-thiazol-2-yl}-5-(1H-pyrazol-4-yl)phenol]	> 10000	> 10000	> 10000	> 10000	> 10000	> 10000	> 10000	> 10000
Cc1cn2nc(-c3nc4sc(C5=CCOCC5)cc4s3)cc(C)c2n1 [Compound 195, 6-[5-(3,6-dihydro-2H-pyran-4-yl)thieno[2,3-d][1,3]thiazol-2-yl]-2,8-dimethylimidazo[1,2-b]pyridazine]	100 to 1000	100 to 1000	100 to 1000	100 to 1000	100 to 1000	100 to 1000	100 to 1000	100 to 1000
Cc1cn2nc(-c3nc4sc(C5=CCNCC5)cc4s3)cc(C)c2n1 [Compound 198, 4-(2-{2,8-dimethylimidazo[1,2-b]pyridazin-6-yl}thieno[2,3-d][1,3]thiazol-5-yl)-1,2,3,6-tetrahydropyridine]	< 100	1000 to 10000	100 to 1000	100 to 1000	100 to 1000	100 to 1000	< 100	100 to 1000
Cn1cc2cc(-c3nc4sc(N5CCC56CCNC6)cc4s3)cc(F)c2n1 (stereo not shown) [Compound 200, 5-(5-{1,6-diazaspiro[3.4]octan-1-yl}thieno[2,3-d][1,3]thiazol-2-yl)-7-fluoro-2-methy-lindazole]	1000 to 10000	> 10000	> 10000	> 10000	> 10000	> 10000	> 10000	> 10000
Cn1cc2cc(-c3nc4sc(N5CCC56CCCNC6)cc4s3)cc(F)c2n1 (stereo not shown) [Compound 202, 1-[2-(7-fluoro-2-methylindazol-5-yl)thieno[2,3-d][1,3]thiazol-5-yl]-1,6-diazaspiro[3.5]nonane]	1000 to 10000	1000 to 10000	> 10000	> 10000	> 10000	> 10000	> 10000	> 10000

Second part, the compound after the results:

IC50 (SMN2 mRNA) [nM]	IC50 (Target C mRNA) [nM]	EC50 (MYB mRNA; [1]) [nM]	IC50 (MYB mRNA; [2]) [nM]	IC50 (MYB mRNA; [3]) [nM]	EC50 (HTT mRNA; [1]) [nM]	IC50 (HTT mRNA; [4]) [nM]	IC50 (HTT mRNA; [5]) [nM]	SMILES
< 100	1000 to 10000	< 100	100 to 1000	< 100	100 to 1000	100 to 1000	100 to 1000	Cn1cc2cc(-c3nc4sc(N5CCNCC5)c(Cl)c4s3)cc(F)c2n1 [Compound 147]
< 100	100 to 1000	1000 to 10000	100 to 1000	1000 to 10000	< 100	< 100	< 100	CN1CCC(c2cc3sc(-c4cc(F)c5nn(C)cc5c4)nc3s2)CC1 [Compound 151, 7-fluoro-2-methyl-5-[5-(1-methylpiperidin-4-yl)thieno[2,3-d][1,3]thiazol-2-yl]indazole]
1000 to 10000	1000 to 10000	1000 to 10000	1000 to 10000	1000 to 10000	1000 to 10000	1000 to 10000	1000 to 10000	Cc1cn2nc(-c3nc4sc(C5CCOCC5)cc4s3)cc(C)c2n1 [Compound 196, 2,8-dimethyl-6-[5-(oxan-4-yl)thieno[2,3-d][1,3]thiazol-2-yl]imidazo[1,2-b]pyridazine]
100 to 1000	1000 to 10000	100 to 1000	100 to 1000	100 to 1000	100 to 1000	100 to 1000	100 to 1000	Cc1cn2nc(-c3nc4sc(C5CCNC5)cc4s3)cc(C)c2n1 (stereo not shown) [Compound 197, 3-(2-{2,8-dimethylimidazo[1,2-b]pyridazin-6-yl}thieno [2,3-d][1,3]thiazol-5-yl)pyrrolidine]
> 10000	> 10000	> 10000	> 10000	> 10000	> 10000	> 10000	> 10000	Cn1cc2cc(-c3nc4sc(N5CCC56CCNCC6)cc4s3)cc(F)c2n1 [Compound 201, 1-[2-(7-fluoro-2-methylindazol-5-yl)thieno[2,3-d][1,3]thiazol-5-yl]-1,7-diazaspiro[3.5]nonane]
1000 to 10000	> 10000	> 10000	> 10000	> 10000	> 10000	> 10000	> 10000	CN1CCCC2(CCN2c2cc3sc(-c4cc(F)c5nn(C)cc5c4)nc3s2)C1 (stereo not shown) [Compound 203, 1-[2-(7-fluoro-2-methylindazol-5-yl)thieno[2,3-d][1,3]thiazol-5-yl]-6-methyl-1,6-diazaspiro[3.5]nonane]
